We go through one compound from patent US9345682B2, “Inhibition of STAT3 signal transduction for human cancer therapy” (University of South Florida, priority 1999, dated 2016).

Entries after “also recorded” stand apart in the source; their conditions may differ.

One experiment relates to U266 cells. Kind of experiment: Cell cycle analysis and spontaneous cell death of U266 cells. It is filed as cell-based, human. On the procedure: (§1) For surface detection of the Fas receptor, 10^6 cells are suspended in […] PBS with 2.5 mg/ml mouse IgM (Sigma) and […] UB2 antibody (MBL) or IgG1, isotype control serum (Dako). Following 30 min incubation at room temperature, cells are washed with PBS, and incubated in the dark for 30 min with goat anti-mouse Ig-FITC. Fluorescence is measured on a FACScan flow cytometer and analyzed using CellQuest software (Becton Dickinson). For cell cycle analysis, 10^6 cells are fixed in ice-cold ethanol for a minimum of 2 h, washed with PBS, and stained with 5 mg/ml propidium iodide (PI) and […] at 37° C. for 30 min prior to analysis by flow cytometry. Sensitivity to Fas-mediated apoptosis is determined by exposing cells to 500 ng/ml agonistic antibody (CH-11, MBL) or 100 ng/ml Fas ligand (Alexis) for 18-24 h. Apoptosis is measured by staining with Annexin V-FITC (Clontech) and flow cytometry analysis. Fas-specific death is calculated as (% Annexin V positive cells in the CH-11 treated population)−(% Annexin V positive cells in the IgM control population). Programmed cell death in cells transfected with the bicistronic green fluorescent protein vectors (pIRES-EGFP or pIRES-Stat3b) is analyzed after staining with Annexin V-PE (Pharmingen) by two color flow cytometry analysis. […]

For a further experiment, the system named is MDA-MB-468 cells. Kind of experiment: Cell growth of MDA-MB-468 breast carcinoma cells. The experiment is classed as cell-based, human. On the procedure: (§2) FIG. 6: Src and JAK Inhibitors Block Growth and STAT3 Activation in Breast Carcinoma Cells. MDA-MD-468 cells are treated with inhibitors of EGF receptor (PD158780), Src (PD180970), or JAKs (AG490), and effects on cell growth (Panel A) and STAT3 DNA-binding activity (Panel B) are determined.
(§3) The involvement of these, and other, tyrosine kinases in STAT3 activation is tested using specific inhibitors of JAK family kinases, and the EGF receptor and Src family kinases.

The subject of experiment [1] is STAT3. Kind of experiment: EMSA (SIE probe) of constitutive STAT3 DNA-binding in U266 myeloma cells. The note with it: 50 mM AG490, within 16 to 24 hours. It is filed as cell-based, human. On the procedure: U266 and RPMI 8226 cell lines are originally obtained from ATCC and maintained in RPMI 1640 medium supplemented with 10% fetal calf serum (FCS). For detection of STATs in primary bone marrow (BM) cells, BM aspirates are diluted 1:2 in phosphate-buffered saline (PBS) and mononuclear cells are separated by the standard Ficoll-Hypaque (Pharmacia LKB Biotechnology) sedimentation procedure. Mononuclear cells are washed twice with PBS, and nuclear extracts are prepared as described below. For inhibitor studies, a minimum of 10^7 U266 cells are treated with 1 mg/ml Sant7 or with […] AG490 (Meydan, et al., 1996, Nature 379:645-648). NIH 3T3 cells overexpressing the human EGF receptor have been described (Garcia, et al., 1997, Immunity 5:449-460).
Nuclear extracts are prepared as previously described. Briefly, nuclei are isolated and extracted in hypertonic buffer (20 mM HEPES, pH 7.9, 420 mM NaCl, 1 mM EDTA, 1 mM EGTA, 20% glycerol, 20 mM NaF, 1 mM Na3VO4, 1 mM Na2P4O7, 1 mM DTT, 0.5 mM PMSF, 0.1 mM aprotinin, 1 mM leupeptin, and 1 mM antipain). […] Protein-DNA complexes are resolved on 5% non-denaturing polyacrylamide gels and analyzed by autoradiography. […]
In general terms: In EMSA bound probe runs differently from free probe, usually more slowly.

A further experiment deals with 8226 cells. Briefly: Fas-mediated apoptosis (Annexin V, flow cytometry) in 8226 cells. The experiment is classed as cell-based, human. The note with it: IL-6-independent 8226 cells, AG490 treatment. On the procedure: as §1
Background: A flow cytometer gives signals particle by particle.

A further experiment has as its system MPC11 tumors. Briefly: MPC11 myeloma tumor growth in vivo. Further details: species or system BALB/c mice. On the procedure: Mice and tumor formation in vivo. Six- to eight-week old female BALB/c mice are obtained from the National Cancer Institute (Frederick, Md.). Cohorts of 3-5 mice per group are used for these experiments. Mice are shaved on the right flank and injected subcutaneously (s.c.) with 5×10^5 of either MOPC or MPC11 cells in […] of PBS to induce tumors.
In vivo treatment with AG-490 and IL-12. When tumors reach about 5 […] in diameter, AG-490 treatment of tumors is initiated and continued daily for 7-10 days. For MOPC tumors, injections of 0.85 mg/day of AG-490 are given intratumorally, supplemented with 0.5 mg/day of AG-490 i.p. For MPC11 tumors, the intratumoral treatment is halved while the i.p. dose remains the same. Control mice receive 50% DMSO vehicle alone in the same volume as the AG-490 treatment group. Recombinant IL-12 is given s.c. at either 100 ng or 200 ng every other day. Tumor growth is monitored daily by measuring two perpendicular tumor diameters with a caliper, and tumor volume was calculated according to the formula V=0.52*a*b(a+b)/2 (a=smallest superficial diameter; b=largest superficial diameter).

Experiment [2] deals with STAT3. Kind of experiment: EMSA of constitutive STAT3 DNA-binding activity in MDA-MB-468 breast carcinoma cells. The experiment is classed as cell-based, human. To be noted: MDA-MB-468 cells; dose-dependent. On the procedure: as §2
STAT DNA-binding activity in human breast cancer cell lines is examined by electrophoretic mobility shift assays (EMSA) (Garcia et al., 1997, Cell Growth Diff. 8:1267-1276). In these experiments, EMSAs are performed using the ^32P-labeled sis-inducible element (SIE) as a probe to detect STAT DNA-binding activity in nuclear extracts of cells. This synthetic DNA oligonucleotide probe is a high-affinity mutant of the c-fos SIE, called hSIE, that binds both STAT1 and STAT3 (Yu, et al., 1995, Science 269:81-83). […] This activation is constitutive and occurs in the absence of exogenous EGF stimulation. By contrast, STAT3 activation is not detected in any of the three cell lines derived from normal breast tissue.
as §3

As for `N#C/C(=C\c1ccc(O)c(O)c1)C(=O)NCc1ccccc1` [AG490], in the experiment with U266 cells (AG490, 72 hours), the spontaneous cell death entry was “extensive spontaneous cell death”. Also, in the experiment on U266 cells (AG490 for 48 h), the “cells accumulating in G1” value is 70%. Also, the cell growth result in the experiment on MDA-MB-468 cells was “inhibition of cell growth”. In addition, in the experiment with STAT3 [1], the “constitutive STAT3 DNA-binding activity” value is on record as “complete abrogation”. In addition, the “sensitivity to Fas-mediated cell death” value with 8226 cells was “does not enhance”. Moreover, the “time to tumor regrowth or metastasis after termination of treatment” value in the experiment on MPC11 tumors (MPC11 tumors) was in the range of 4 to 7 days. Moreover, the MPC11 tumor response entry with MPC11 tumors (pre-existing MPC11 tumors, all treated mice) is reported as “rapid rejection; also recorded: all of the tumors in AG-490-treated mice regressed”. Further, in the experiment with STAT3 [2], the “constitutive STAT3 activation (STAT3 DNA-binding activity)” value is on record as “effectively blocked”.
